Assay results: article PMC7942396, “Drug Repurposing Screen for Compounds Inhibiting the Cytopathic Effect of SARS-CoV-2” (Frontiers in Pharmacology, 2021)
Counter-ions that a name gives are not always drawn. Like-named read-outs stand apart in the source and are kept apart here.

What was measured:
[1] = system: SARS-CoV-2 (USA_WA1/2020); experiment: microbe, parasite or virus in culture; assay type: cell-based; conditions: for Shape of concentration-response in the CPE assay: Figure 3
in vitro = conditions: African green monkey
[2] = Severe acute respiratory syndrome coronavirus 2, Vero C1008, SARS-CoV-2 CPE assay, Vero E6 cells, confirmed anti-SARS-CoV-2 compounds, read-out: CPE EC50
[3] = Severe acute respiratory syndrome coronavirus 2, Vero C1008, SARS-CoV-2 CPE assay, Vero E6 cells, efficacy, read-out: CPE % Efficacy
[4] = Severe acute respiratory syndrome coronavirus 2, Vero C1008, 72 h, read-out: CPE EC50
[5] = Severe acute respiratory syndrome coronavirus 2, Vero C1008, […], DMSO 0%, no-virus control 100%, hit confirmation, read-out: CPE % efficacy
[6] = Severe acute respiratory syndrome coronavirus 2, Vero C1008, SARS-CoV-2 CPE assay, Vero E6 cells, read-out: CPE % Efficacy
[7] = Severe acute respiratory syndrome coronavirus 2, Vero C1008, SARS-CoV-2 CPE assay, Vero E6 cells, read-out: CPE EC50
[8] = Severe acute respiratory syndrome coronavirus 2, Vero C1008, read-out: CPE % Efficacy

SMILES	EC50 [1, 2]	Emax [1, 3]	cytotoxicity at 72 h (in vitro)	CC50 (in vitro)	cytotoxicity (in vitro)	also measured
CC1CCCCN1CCCOC(=O)c1ccc(OC2CCCCC2)cc1 (stereo not shown) [Cyclomethycaine]	8.91 µM	79.7%	9.6%			CC50 at 72 h (in vitro): 17.8 µM
CC(C)(O)CNc1ncc(-c2ccnc(Nc3ccnc(Cl)c3)n2)c(CC2CC2)n1 [VPS34-IN1, reference compound]				10 µM		Shape of concentration-response in the CPE assay [1]: bell-shaped concentration-responses due to cytotoxicity; EC50 [1, 4]: 0.63 µM; Emax [1, 5]: 103%
CCn1c(-c2nonc2N)nc2cnc(Oc3cccc(NC(=O)c4ccc(OCCN5CCOCC5)cc4)c3)cc21 [GSK-269962A]	7.94 µM	41.8%		2 µM	56.8%	
CC(C)[C@@]1(NC(=O)[C@@H]2C[C@@H]3c4cccc5[nH]cc(c45)C[C@H]3N(C)C2)O[C@@]2(O)[C@@H]3CCCN3C(=O)[C@H](Cc3ccccc3)N2C1=O [Dihydroergocristine]				15.8 µM	11.5%	Emax [1, 6]: 32%; EC50 [1, 7]: 14.1 µM
CCOC(=O)[C@H](CCc1ccccc1)N[C@H]1CCc2ccccc2N(CC(=O)O)C1=O [Benazepril]					0%	Emax [1, 6]: 108%; EC50 [1, 7]: 12.6 µM
CNCc1ccc(-c2cc(-c3nc(-c4ccc(S(=O)(=O)C(C)C)cc4)cnc3N)on2)cc1 [Berzosertib, reference compound]						Shape of concentration-response in the CPE assay [1]: bell-shaped concentration-responses due to cytotoxicity; EC50 [1, 4]: 0.71 µM; Emax [1, 5]: 87.9%; CC50 at 72 h (in vitro): 11.2 µM
Cc1ccc(NC(=O)Nc2cc(C(F)(F)F)ccc2F)cc1Nc1ccc2c(c1)NC(=O)/C2=C\c1ccc[nH]1 [GNF-5837]	3.16 µM	84%		8.91 µM	61.4%	
CCCCCCC(C)(C)c1cc(O)c2c(c1)OC(C)(C)[C@H]1CC=C(CO)C[C@H]21 [Dexanabinol, reference compound]					< 30%	EC50 [1, 4]: 10 µM; Emax [1, 5]: 111%
CN1CCN(CC/C=C2/c3ccccc3Sc3ccc(S(=O)(=O)N(C)C)cc32)CC1 [THIOTHIXENE]	3.98 µM	70.6%		12.6 µM	108%	
CC(CN(C)C)CN1c2ccccc2CCc2ccccc21 (stereo not shown) [Trimipramine maleate]	10 µM	51.8%		15.8 µM	19.8%	
CC(=O)Oc1ccccc1C(=O)Nc1ncc([N+](=O)[O-])s1 [Nitazoxanide]	6.31 µM	73.7%	54.7%			CC50 at 72 h (in vitro): 12.6 µM
COc1cc2nc(N3CCN(C(=O)C4COc5ccccc5O4)CC3)nc(N)c2cc1OC (stereo not shown) [Doxazosin mesylate]					0%	Emax [1, 6]: 86.6%; EC50 [1, 7]: 14.1 µM
Oc1c(I)cc(Cl)c2cccnc12 [Clioquinol]	6.31 µM	55.1%	62.2%			CC50 at 72 h (in vitro): 3.16 µM
CSc1ccc(C(=O)/C=C/c2cc(C)c(OC(C)(C)C(=O)O)c(C)c2)cc1 [Elafibranor]			0%			Emax [1, 6]: 55.7%; EC50 [1, 7]: 19.9 µM
CN(C)[C@@H](CCOc1cccc2ccccc12)c1ccccc1 [Dapoxetine]	10 µM	82.6%	32%			
COC(=O)C1=C(C)NC(C)=C(C(=O)OCCN(C)Cc2ccccc2)C1c1cccc([N+](=O)[O-])c1 (stereo not shown) [Nicardipine]				12.6 µM	32.8%	Emax [1, 6]: 56.3%; EC50 [1, 7]: 12.6 µM
Cc1cc(C2CCCCC2)n(O)c(=O)c1 [Ciclopirox]	8.91 µM	63.4%	56.1%			CC50 at 72 h (in vitro): 2.51 µM
CN(C)c1cc2c(cc1Sc1nc3c(N)nccc3n1CCNCC(C)(C)C)OCO2 [CUDC-305]	2.51 µM	74.5%	27.7%			CC50 at 72 h (in vitro): 0.71 µM
Fc1ccc2[nH]ccc2c1-c1nc(N2CCOCC2)c2sc(CN3CCN(CC4CC4)CC3)cc2n1 [PI-3065]			52.2%			Emax [1, 6]: 32.7%; EC50 [1, 7]: 14.1 µM; CC50 at 72 h (in vitro): 5.62 µM
CCCC[C@@H](C=O)NC(=O)[C@H](CC(C)C)NC(=O)OCc1ccccc1 [Calpeptin, reference compound]					< 30%	EC50 [1, 4]: 0.5 µM; Emax [1, 5]: 112%
c1ccc(-c2ccc(C(c3ccccc3)n3ccnc3)cc2)cc1 (stereo not shown) [Bifonazole]	10 µM	36.4%			24.5%	
Clc1ccc2c(c1)N=C(N1CCNCC1)c1ccccc1N2 [N-Desmethylclozapine]			20.1%			Emax [1, 6]: 31.1%; EC50 [1, 7]: 14.1 µM; CC50 at 72 h (in vitro): 10 µM
O=c1c2ccccc2[se]n1-c1ccccc1 [Ebselen]	11.2 µM	38.1%	0%			
CC(/C=C/[C@@H]1C[C@]1(C)c1ccc2c(c1)C(C)(C)CCC2(C)C)=C\C(=O)O [AGN-194204]	11.2 µM	57%	36.8%			

SMILES	EC50 [1, 2]	Emax [1, 3]	cytotoxicity at 72 h (in vitro)	CC50 (in vitro)	cytotoxicity (in vitro)	also measured
CCC(=O)c1ccc2c(c1)N(CCCN(C)C)c1ccccc1S2 [Propionylpromazine hydrochloride]	11.2 µM	72.3%	19.8%			
CC(C)COCC(CN(Cc1ccccc1)c1ccccc1)N1CCCC1 (stereo not shown) [Bepridil]	11.2 µM	113%		22.4 µM	25.4%	
CN1CC[C@@H](c2c(O)cc(O)c3c(=O)cc(-c4ccc(C(F)(F)F)cc4Cl)oc23)[C@@H]1CO [Voruciclib]					12.9%	Emax [1, 6]: 39.2%; EC50 [1, 7]: 14.1 µM
O=C(/C=C/c1ccccc1)NC(NC(=S)Nc1cccc2cccnc12)C(Cl)(Cl)Cl (stereo not shown) [Salubrinal]	10 µM	38.3%		5.01 µM	15.9%	
COCCN1CCN(Cc2ccc(-c3n[nH]c4c3C(=O)c3c(NC(=O)NN5CCOCC5)cccc3-4)cc2)CC1 [RGB-286638]	2.82 µM	111%	37.9%			CC50 at 72 h (in vitro): 0.32 µM
CNCCCC1c2ccccc2C=Cc2ccccc21 [Protriptyline hydrochloride]				12.6 µM	17.4%	Emax [1, 8]: 58.2%; EC50 ([1]; Severe acute respiratory syndrome coronavirus 2, Vero C1008, read-out: CPE EC50): 11.2 µM
COc1cc(N2CCN(C)CC2)ccc1Nc1nccc(-c2cn(C)c3cnccc23)n1 [AZ-191]	8.91 µM	79.2%		11.2 µM	31.2%	
CN1CCN(CCCN2c3ccccc3Sc3ccc(Cl)cc32)CC1 [Prochlorperazine dimaleate]		107%		22.4 µM	103%	
CC(CN1c2ccccc2Sc2ccccc21)N(C)C (stereo not shown) [Promethazine]	11.2 µM	94%	15.4%			CC50 at 72 h (in vitro): 15.8 µM
CC(C(O)c1ccccc1)N(C)CCOC(c1ccccc1)c1ccccc1 (stereo not shown) [Difeterol, reference compound]			< 30%			EC50 [1, 4]: 10 µM; Emax [1, 5]: 113%
CCc1ccc(N(CC(C)C)S(=O)(=O)c2ccc(OCC3CCOCC3)c(CO)c2)cc1 [GSK-2981278]			51.1%			Emax [1, 6]: 36%; EC50 [1, 7]: 14.1 µM; CC50 at 72 h (in vitro): 12.6 µM
CN(C)CCOC(c1ccccc1)c1ccc(Br)cc1 (stereo not shown) [Bromodiphenhydramine]			0%			Emax [1, 6]: 36%; EC50 [1, 7]: 12.6 µM
CCCN1CCN(c2ccc(C(=O)NC3(C(=O)NCC#N)CCCCC3)cc2)CC1 [Balicatib, reference compound]			< 30%			EC50 [1, 4]: 2 µM; Emax [1, 5]: 100%
O=C(CCCN1CCC2(CC1)C(=O)NCN2c1ccccc1)c1ccc(F)cc1 [Spiperone]	4.47 µM	61.2%	30%			CC50 at 72 h (in vitro): 3.55 µM
Cc1cccc(/C=N/Nc2cc(N3CCOCC3)nc(OCCc3ccccn3)n2)c1 [Apilimod, reference compound]			< 30%			EC50 [1, 4]: 0.023 µM; Emax [1, 5]: 104%
O[C@H]1[C@H]2c3cc4c(cc3CN3CCC(=C[C@@H]1O)[C@H]23)OCO4 [Lycorine hydrochloride]	0.63 µM	34.6%		3.55 µM	90.6%	
CC/C(=C(\c1ccccc1)c1ccc(OCCN(C)C)cc1)c1ccccc1 [Tamoxifen]		102%			93.9%	
OCCOc1ccc(/C(=C(/CCCl)c2ccccc2)c2ccccc2)cc1 [Ospemifene]				12.6 µM	26.6%	Emax [1, 8]: 48.2%; EC50 ([1]; Severe acute respiratory syndrome coronavirus 2, Vero C1008, read-out: CPE EC50 (uM)): 12.6 µM
CN(C)CCOC(C)(c1ccccc1)c1ccc(Cl)cc1 (stereo not shown) [Chlorphenoxamine]	6.31 µM	75.3%	36.9%			CC50 at 72 h (in vitro): 11.2 µM
CN1CCC(=C2c3ccccc3C=Cc3ccccc32)CC1 [Cyproheptadine hydrochloride]		50%		12.6 µM	20.2%	
COc1ccc2cc1Oc1ccc(cc1)C[C@H]1c3c(cc4c(c3Oc3cc5c(cc3OC)CCN(C)[C@@H]5C2)OCO4)CCN1C [Cepharanthine]	1.41 µM	91.3%		11.2 µM	105%	
COc1cc(C(C)=O)ccc1OCCCN1CCC(c2noc3cc(F)ccc23)CC1 [Iloperidone]			16.4%			Emax [1, 6]: 108%; EC50 [1, 7]: 12.6 µM; CC50 at 72 h (in vitro): 15.8 µM
CN1CCC(c2cn(C)c3ccc(OS(=O)(=O)c4c(F)cccc4F)cc23)CC1 [SGS 518]				8.91 µM	18.2%	Emax [1, 6]: 101%; EC50 [1, 7]: 12.6 µM
